In ChEMBL document CHEMBL1201862, “PubChem BioAssay data set” (2004):
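Values below derive from 48-hour exposures of cells grown in 96-well plates, with endpoints linearly interpolated between the two concentrations bracketing the appropriate inhibition level. GI50 = concentration required for 50% inhibition of growth.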 Activity calls are given as the source filed them. Rule as the data show it: active = GI50 up to about 1.1 µM and inactive = higher.

How the values were obtained:
Test in all cases: NCI anticancer screen, dose series, 48 h
MOLT-4 = test system: MOLT-4
EKVX = test system: EKVX
OVCAR-8 = test system: OVCAR-8
UACC-257 = test system: UACC-257
UACC-62 = test system: UACC-62
NCI-H23 = test system: NCI-H23
SF-539 = test system: SF-539
SNB-19 = test system: SNB-19
HOP-62 = test system: HOP-62
UO-31 = test system: UO-31
CCRF-CEM = test system: CCRF-CEM
SW-620 = test system: SW-620
NCI-H226 = test system: NCI-H226
SN12C = test system: SN12C
OVCAR-4 = test system: OVCAR-4
SK-MEL-2 = test system: SK-MEL-2
CAKI-1 = test system: CAKI-1

Measured: GI50

O=C(O)CC1CC=C[C@H]2c3cc4c(cc3C(=O)NC12)OCO4 (stereo not given in full)
inactive: MOLT-4 > 75 µM | EKVX > 75 µM | OVCAR-8 > 75 µM | UACC-257 > 75 µM | UACC-62 > 75 µM | NCI-H23 > 75 µM | SF-539 > 75 µM | SNB-19 > 75 µM | HOP-62 > 75 µM | UO-31 > 75 µM | CCRF-CEM > 75 µM | SW-620 > 75 µM | NCI-H226 44.7 µM | SN12C > 75 µM

O=C1CCC2CCOc3ccc(O)c1c32 (stereo not given)
inactive: MOLT-4 > 100 µM | EKVX > 100 µM | OVCAR-8 > 100 µM | UACC-257 > 100 µM | UACC-62 > 100 µM | NCI-H23 > 100 µM | OVCAR-4 > 100 µM | SK-MEL-2 > 100 µM | SF-539 > 100 µM | SNB-19 > 100 µM | HOP-62 > 100 µM | UO-31 > 100 µM | CCRF-CEM > 100 µM | NCI-H226 > 100 µM | SN12C > 100 µM

CCc1cc(C)cc2[n+]1CC=C2.[O-][Cl+3]([O-])([O-])[O-]
inactive: EKVX 25.4 µM | OVCAR-8 3.97 µM | UACC-257 3.55 µM | NCI-H23 13.9 µM | OVCAR-4 34.1 µM | SK-MEL-2 15.6 µM | CAKI-1 28.2 µM | SF-539 26.7 µM | SNB-19 28.6 µM | HOP-62 18.7 µM | UO-31 16.9 µM | SW-620 7.33 µM | NCI-H226 15.7 µM | SN12C 22.2 µM

CC(C)OCN1COCN/C1=N/C#N
inactive: MOLT-4 > 100 µM | EKVX > 100 µM | OVCAR-8 > 100 µM | UACC-257 > 100 µM | UACC-62 > 100 µM | NCI-H23 > 100 µM | OVCAR-4 > 100 µM | SK-MEL-2 > 100 µM | CAKI-1 > 100 µM | SF-539 > 100 µM | SNB-19 > 100 µM | HOP-62 > 100 µM | UO-31 > 100 µM | SW-620 18.3 µM | NCI-H226 > 100 µM | SN12C > 100 µM

Cc1ccc(/N=C/c2ccc3c(c2)OCO3)cc1C
inactive: MOLT-4 > 100 µM | EKVX > 100 µM | OVCAR-8 > 100 µM | UACC-62 > 100 µM | NCI-H23 > 100 µM | SK-MEL-2 > 100 µM | CAKI-1 > 100 µM | SF-539 > 100 µM | SNB-19 > 100 µM | UO-31 > 100 µM | CCRF-CEM > 100 µM | SW-620 > 100 µM | NCI-H226 > 100 µM | SN12C > 100 µM

O=c1cc(-c2ccc(O)cc2)oc2cc(O)cc(O)c12 [APIGENIN]
inactive: MOLT-4 23 µM | EKVX 33.5 µM | UACC-257 30.8 µM | UACC-62 24.8 µM | NCI-H23 17.8 µM | OVCAR-4 32.2 µM | SK-MEL-2 29.9 µM | SF-539 > 10 µM | SNB-19 29.7 µM | HOP-62 43.6 µM | UO-31 23.9 µM | CCRF-CEM 20.4 µM | NCI-H226 24.7 µM | SN12C 30.4 µM

Cc1cc(N(CCC#N)CCC#N)ccc1/N=N/c1ccc(C(=O)O)cc1
inactive: MOLT-4 > 100 µM | EKVX > 100 µM | OVCAR-8 > 100 µM | UACC-257 > 100 µM | UACC-62 > 100 µM | NCI-H23 > 100 µM | OVCAR-4 > 100 µM | SK-MEL-2 > 100 µM | CAKI-1 > 100 µM | SF-539 > 100 µM | HOP-62 61 µM | UO-31 77.6 µM | SW-620 > 100 µM | NCI-H226 > 100 µM | SN12C > 100 µM

CC12CC(=O)OC(Cc3ccccc31)O2 (stereo not given)
inactive: MOLT-4 > 100 µM | EKVX > 100 µM | OVCAR-8 > 100 µM | UACC-257 > 100 µM | UACC-62 > 100 µM | NCI-H23 > 100 µM | SK-MEL-2 > 100 µM | SF-539 > 100 µM | SNB-19 > 100 µM | HOP-62 > 100 µM | UO-31 > 100 µM | CCRF-CEM > 100 µM | SW-620 > 100 µM | NCI-H226 > 100 µM | SN12C > 100 µM

CCCN(CCC)C(=O)c1nc(N)nc(-c2ccc(OC)cc2)c1-c1ccc(OC)cc1
inactive: MOLT-4 11.2 µM | EKVX > 100 µM | OVCAR-8 > 100 µM | UACC-257 > 100 µM | UACC-62 > 100 µM | NCI-H23 > 100 µM | OVCAR-4 47.9 µM | SK-MEL-2 > 100 µM | CAKI-1 > 100 µM | SF-539 > 100 µM | SNB-19 > 100 µM | UO-31 > 100 µM | CCRF-CEM > 100 µM | SW-620 > 100 µM | NCI-H226 > 100 µM | SN12C > 100 µM

Nc1nc(S)nc(C(=O)Nc2ccc(Cl)c(Cl)c2)c1-c1ccc(Cl)cc1
inactive: MOLT-4 14.7 µM | EKVX > 100 µM | OVCAR-8 > 100 µM | UACC-257 > 100 µM | UACC-62 > 100 µM | NCI-H23 > 100 µM | OVCAR-4 > 100 µM | CAKI-1 > 100 µM | SF-539 > 100 µM | SNB-19 > 100 µM | HOP-62 > 100 µM | UO-31 > 100 µM | CCRF-CEM > 100 µM | SW-620 > 100 µM | NCI-H226 > 100 µM | SN12C > 100 µM

CC(=O)Nc1ccc(S(=O)(=O)N/N=C/c2cc(I)cc([N+](=O)[O-])c2O)cc1
inactive: MOLT-4 32.7 µM | EKVX 60.5 µM | OVCAR-8 > 100 µM | UACC-257 > 100 µM | UACC-62 30.3 µM | NCI-H23 29.5 µM | OVCAR-4 30.3 µM | SK-MEL-2 41.9 µM | CAKI-1 81.5 µM | SNB-19 55.3 µM | UO-31 33.3 µM | CCRF-CEM 35.6 µM | SW-620 > 100 µM | NCI-H226 62.4 µM | SN12C 64.3 µM

CN(C)CC/C(=N\Nc1c(Cl)cccc1Cl)c1ccccc1
inactive: MOLT-4 23.4 µM | EKVX 30.3 µM | OVCAR-8 16.9 µM | UACC-257 17.7 µM | UACC-62 15.8 µM | NCI-H23 15.6 µM | OVCAR-4 20.3 µM | SK-MEL-2 18.2 µM | SF-539 16.9 µM | SNB-19 35.1 µM | HOP-62 29.4 µM | UO-31 7.08 µM | CCRF-CEM 28.2 µM | SW-620 17.6 µM | SN12C 28.7 µM

O=C1NN=CN2C(=O)CCC12 (stereo not given)
inactive: MOLT-4 > 100 µM | EKVX > 100 µM | OVCAR-8 > 100 µM | UACC-257 > 100 µM | UACC-62 > 100 µM | NCI-H23 > 100 µM | OVCAR-4 > 100 µM | SK-MEL-2 > 100 µM | CAKI-1 > 100 µM | SF-539 > 100 µM | SNB-19 > 100 µM | HOP-62 > 100 µM | UO-31 > 100 µM | CCRF-CEM > 100 µM | SW-620 > 100 µM | SN12C > 100 µM
